{"source": "the supplement of paper PMC6723410", "data": [{"test_system": "GUMC-403", "assay": "viability at highest tested concentration (max response) relative to DMSO (% of DMSO control); higher = less cytotoxic", "conditions": "library / dose series: MIPE library, 11-point 1:3 dilution; top concentration 23 µM; 48 h", "summary_of_the_method": "(§1)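 In 1536-well plates, 700 GUMC-403 papilloma cells per well, taken from a patient and grown by conditional reprogramming, were seeded in 5 μL F + Y medium and incubated overnight at 37 °C. Compounds were pinned in at 23 nL in an 11-point 1:3 series, and left for 48 h before CellTiter-Glo luminescence was read on a ViewLux against vehicle (100%) and empty (0%) wells. Reported values are viability at the highest tested concentration relative to vehicle control.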", "values": [{"compound": "C[C@]\\12CC[C@H](O)CC1=C/C[C@@H]3[C@@H]2CC[C@@]\\4(C)[C@H]3C\\C=C4C5=CN=CC=C5", "viability": 110}]}, {"test_system": "GUMC-403", "assay": "viability at highest tested concentration (max response) relative to DMSO (% of DMSO control); higher = less cytotoxic", "conditions": "library / dose series: MIPE library, 11-point 1:3 dilution; top concentration 46.1 µM; 48 h", "summary_of_the_method": "as §1", "values": [{"compound": "CC[C@H]1OC(=O)[C@H](C)[C@@H](O[C@H]2C[C@@](C)(OC)[C@@H](O)[C@H](C)O2)[C@H](C)[C@@H](O[C@@H]2O[C@H](C)C[C@H](N(C)C)[C@H]2O)[C@](C)(O)C[C@@H](C)CN(C)[C@H](C)[C@@H](O)[C@]1(C)O", "viability": 109}, {"compound": "COc1ccc2c(c1OC)C(=O)O[C@H]2[C@H]1c2c(cc3c(c2OC)OCO3)CCN1C", "viability": 103}, {"compound": "CN(C)CCCN\\C1=C\\2C(=O)N(C)C(=O)\\N=C2N(C)C3=C1C=CC=C3", "viability": 107}, {"compound": "C=C1/C(=C\\C=C2/CCC[C@]3(C)[C@@H]([C@H](C)CCCC(C)(C)O)CC[C@@H]23)C[C@@H](O)C[C@@H]1O", "viability": 145}, {"compound": "CCn1c(-c2nonc2N)nc2cncc(CNC3CCNCC3)c21", "viability": 121}, {"compound": "CCC1=C[C@@H]2CN(C1)Cc1c([nH]c3ccccc13)[C@@](C(=O)OC)(c1cc3c(cc1OC)N(C)[C@H]1[C@@](O)(C(=O)OC)[C@H](OC(C)=O)[C@]4(CC)C=CCN5CC[C@]31[C@@H]54)C2", "viability": 89.9}, {"compound": "C[N]1C=NC=C1[C@@](N)(C2=CC=C(Cl)C=C2)C3=CC=C4N(C)C(=O)\\C=C(\\C5=CC=CC(=C5)Cl)C4=C3", "viability": 96.3}, {"compound": "CCCNCC(O)COc1ccccc1C(=O)CCc1ccccc1", "note": "(centres undefined)", "viability": 90.5}, {"compound": "COCCOc1ccc2c(c1)ncn2-c1ccc2cccc(N3CCC(N)CC3)c2n1", "viability": 87}, {"compound": "C[C@]12CCC(=O)C(O)=C1CC[C@@H]1[C@@H]2CC[C@]2(C)C(=O)CC[C@@H]12", "viability": 113}, {"compound": "Clc1ccc(C(Cn2ccnc2)OCc2ccc(Sc3ccccc3)cc2)c(Cl)c1", "note": "(centres undefined)", "viability": 118}, {"compound": "CC(C)N(CCCNC(=O)Nc1ccc(C(C)(C)C)cc1)C[C@H]1O[C@@H](n2cc(Br)c3c(N)ncnc32)[C@H](O)[C@@H]1O", "viability": 89.1}, {"compound": "CN(C)c1cc(NC(=O)CNC(C)(C)C)c(O)c2c1C[C@H]1C[C@H]3[C@H](N(C)C)C(O)=C(C(N)=O)C(=O)[C@@]3(O)C(O)=C1C2=O", "viability": 110}, {"compound": "CCOc1ccccc1OCCNC(C)Cc1ccc(OC)c([S+](N)(=O)[O-])c1", "note": "(centres undefined)", "viability": 135}, {"compound": "O=C(CC12CC3CC(CC(C3)C1)C2)Nc1cccc2nc(NCCNCCO)ccc12", "viability": 69.8}, {"compound": "N[C@@H](Cc1ccc(N(CCCl)CCCl)cc1)C(=O)O", "viability": 143}, {"compound": "CC1=CC=C(C=C1)N(C\\C2=N\\CCN2)C3=CC=CC(=C3)O", "viability": 116}, {"compound": "C[C@@H](Oc1cc(-n2cnc3ccc(CN4CCN(C)CC4)cc32)sc1C(N)=O)c1ccccc1C(F)(F)F", "viability": 47.4}, {"compound": "CC(C[N+](C)(C)C)OC(N)=O", "note": "(centres undefined)", "viability": 101}, {"compound": "O=C(Nc1ncc(-c2cc(C(F)F)nn2-c2c(Cl)cccc2Cl)s1)C1CC1", "viability": 84.9}, {"compound": "COc1cc(-c2nn(C3CCC(N4CCN(C(C)=O)CC4)CC3)c3ncnc(N)c23)ccc1NC(=O)c1cc2ccccc2n1C", "note": "(centres undefined)", "viability": 78.2}, {"compound": "COC\\1=C(/OC)C(=O)\\C(=C(C)/C1=O)CCCCCCCCCCO", "viability": 112}, {"compound": "CCO[C@@H]1OC(=O)C[C@@H]1NC(=O)[C@@H]1CCCN1C(=O)[C@@H](NC(=O)c1ccc(N)c(Cl)c1)C(C)(C)C", "viability": 138}, {"compound": "Cc1cccc(-c2n[nH]cc2-c2ccc3ncccc3n2)n1", "viability": 126}, {"compound": "NC(=O)c1ccc(I)c([N+](=O)[O-])c1", "viability": 122}, {"compound": "C[C@](Cc1c[nH]c2ccccc12)(NC(=O)OC1C2CC3CC(C2)CC1C3)C(=O)NC[C@H](NC(=O)CCC(=O)O)c1ccccc1", "note": "(some centres undefined)", "viability": 103}, {"compound": "Cn1cc(-c2ccc3ncc(Cc4ccc5ncccc5c4)n3n2)cn1", "viability": 123}, {"compound": "N[C@@H](CC(=O)N1CCn2c(nnc2C(F)(F)F)C1)Cc1cc(F)c(F)cc1F", "viability": 97.9}, {"compound": "COC/1=C/C=C2\\C(=C/C1=O)[C@H](CCC3=CC(=C(OC)C(=C23)OC)OC)NC(C)=O", "viability": 90.8}, {"compound": "O=C(O)CCC1CCC(c2cc(F)ccc2F)([S+](=O)([O-])c2ccc(Cl)cc2)CC1", "note": "(centres undefined)", "viability": 99.9}, {"compound": "CNC(=O)c1ccc(-c2cnc3ncc(Cc4ccc5ncccc5c4)n3n2)cc1F", "viability": 103}, {"compound": "CCNC(=O)Nc1ccc(Oc2ncnc(N)c2/C=N/OC)cc1Cl", "viability": 109}, {"compound": "C[C@@H]1CN(Cc2ccc(F)cc2)[C@@H](C)CN1C(=O)c1cc2c(C(=O)C(=O)N(C)C)cn(C)c2cc1Cl", "viability": 101}, {"compound": "COc1cc(F)c(F)c(Nc2ccc(I)cc2F)c1N[S+](=O)([O-])C1(C[C@H](O)CO)CC1", "viability": 101}, {"compound": "Cc1cc(-c2ccc(CC(=O)Nc3ccc(-c4cccnc4)cc3)cc2)ccn1", "viability": 118}, {"compound": "COc1cc2nc(N3CCN(C(=O)C4COc5ccccc5O4)CC3)nc(N)c2cc1OC", "note": "(centres undefined)", "viability": 115}, {"compound": "CO/N=C(/C(=O)N[C@@H]1C(=O)N2C(C(=O)O)=C(Cn3ccc(=N)n3CCO)CS[C@H]12)c1csc(N)n1", "viability": 109}, {"compound": "CC(=O)N1CCN(c2ccc(OCc3nn(C)c(C)c3-c3cccc4c(CCCOc5cc(C)c(Cl)c(C)c5)c(C(=O)O)n(Cc5cccnc5)c34)cc2)CC1", "viability": 137}, {"compound": "CCCOc1ccc2[nH]c(NC(=O)OC)nc2c1", "viability": 108}, {"compound": "COc1cc(O)c2c(c1)C1OC1C[C@H](O)[C@H](O)C(=O)/C=C\\C[C@H](C)OC2=O", "note": "(some centres undefined)", "viability": 107}, {"compound": "CC(C)Cn1cnc2c(N)nc3ccccc3c21", "viability": 116}, {"compound": "CC(C)C[C@H](CC(=O)O)C(=O)N[C@@H](Cc1c[nH]c2ccccc12)C(=O)N[C@@H](C)c1ccccc1", "viability": 108}, {"compound": "CCN(CC)CCCCNc1ncc2cc(-c3cc(OC)cc(OC)c3)c(NC(=O)NC(C)(C)C)nc2n1", "viability": 128}, {"compound": "Nc1ncnc2ccccc12", "viability": 127}, {"compound": "CO[C@@H]1[C@H](N(C)C(=O)c2ccccc2)C[C@H]2O[C@]1(C)n1c3ccccc3c3c4c(c5c6ccccc6n2c5c31)C(=O)NC4", "viability": 66.2}, {"compound": "CCOC(=O)c1c(/C(C#N)=C\\N)c2ccc(Cl)c(Cl)c2n1C", "viability": 92.2}, {"compound": "C[N]1C2=C(SC(=C2)[S+](C)[O-])C\\3=C1C(=O)N(CC4=CC(=CC=C4)N)\\N=C3", "note": "(centres undefined)", "viability": 106}, {"compound": "CN(C)CCOc1cc(-c2cn[nH]c2)ccc1NC(=O)C1COc2ccccc2O1", "note": "(centres undefined)", "viability": 117}, {"compound": "C[C@H](NC(=O)C(=O)Nc1ccccc1C(C)(C)C)C(=O)N[C@@H](CC(=O)O)C(=O)COc1c(F)c(F)cc(F)c1F", "viability": 68.7}, {"compound": "CN(C)CCc1c[nH]c2ccc(Cn3cncn3)cc12", "viability": 100}, {"compound": "COc1nc(C)cnc1N[S+](=O)([O-])c1cccnc1-c1ccc(-c2nnco2)cc1", "viability": 138}, {"compound": "CC1(C)CNc2cc(NC(=O)c3cccnc3NCc3ccncc3)ccc21", "viability": 117}, {"compound": "COc1ccc(C(=O)c2c(C)n(CCN3CCOCC3)c3ccccc23)cc1", "viability": 122}, {"compound": "COc1ccc(/C=C/C(=O)Nc2ccccc2C(=O)O)cc1OC", "viability": 106}, {"compound": "CC(C)(F)C[C@H](N[C@@H](c1ccc(-c2ccc([S+](C)(=O)[O-])cc2)cc1)C(F)(F)F)C(=O)NC1(C#N)CC1", "viability": 110}, {"compound": "C=C[C@H]1CN2CCC1C[C@@H]2[C@@H](O)c1ccnc2ccccc12", "note": "(some centres undefined)", "viability": 66.8}, {"compound": "N#CCNC(=O)c1ccc(-c2ccnc(Nc3ccc(N4CCOCC4)cc3)n2)cc1", "viability": 9.51}]}, {"test_system": "GUMC-403", "assay": "viability at highest tested concentration (max response) relative to DMSO (% of DMSO control); higher = less cytotoxic", "conditions": "library / dose series: MIPE library, 11-point 1:3 dilution; top concentration 92.2 µM; 48 h", "summary_of_the_method": "as §1", "values": [{"compound": "COc1ccc(-c2c(-c3ccc(O)cc3O)n[nH]c2C)cc1", "viability": 98.3}]}]}
